# In patent US20210183467A1, “SYSTEM AND METHOD FOR USING MICROBIOME TO DE-RISK DRUG DEVELOPMENT” (YALE UNIVERSITY, priority 2018, published 2021):
# Assays:
# [1] = Oral BRV in conventional (CV) and germfree (GF) mice, drug and metabolite levels; format: in vivo, C57BL/6 mice
# Experimental: Oral BRV was administered to conventional (CV) and germfree (GF) C57BL/6 mice, and BRV and BVU concentrations were measured over time along the length of the gastrointestinal tract as shown in FIG. 4C. Serum kinetics of BRV and BVU in conventional (CV) and germ-free (GF) mice were compared following oral BRV administration.
# All experiments using mice are performed using protocols approved by the Yale University Institutional Animal Care and Use Committee. Germfree (GF) 8 to 12 week old C57BL/6J mice are maintained in flexible plastic gnotobiotic isolators with a 12-hour light/dark cycle and GF status monitored by PCR and culture-based methods. Conventional C57BL/6J mice (Jackson Laboratories) are purchased at the age of 6-7 weeks and kept in the lab for 2-3 weeks before experiments. All mice are provided a standard, autoclaved mouse chow (5013 LabDiet, Purina) ad libitum.
# Each drug treatment is performed using 20 treated and 5 to 6 untreated animals. Both genders are equally represented in each group and evenly distributed across the different time points for sample collection. Animals (n=5 per time point and group) are given 100 mg/kg body weight of BRV or SRV as suspensions in PBS (200 μL PBS for controls) by oral gavage. One blood sample is collected from each animal at an early time point (0.5, 1, 1.5, or 2 hours after drug administration) by submandibular bleeding. At 3, 5, 7, and 9 h, mice are sacrificed and tissue samples are collected into sample tubes and snap-frozen. Fecal samples are collected before euthanization and re-suspended in PBS (1 mL) through vigorous shaking. 20 μL are then plated on BHI blood plates and incubated aerobically and anaerobically at 37° C. to check GF, GN^WT, and GN^MUT animals for contamination. Monocolonized mice are also checked for contamination by PCR using primers 7 and 8.
# 200 μL of 0.1 mm zirconia/silica beads (BioSpec Products) and 500 μL of organic solvent (acetonitrile:methanol, 1:1) supplemented with internal standard are added to 50-350 mg of pre-weighed solid material. Material is homogenized by mechanical disruption with a bead beater (BioSpec Products) set for 2 minutes on high setting at room temperature. After incubation for at least 1 h at −20° C., samples are centrifuged (3220 rcf, −9° C.) for 15 min. 10 μL of supernatant are diluted with 10 μL H2O for analysis by LC-MS.
# Samples for LS-MS analysis are prepared as described above. Chromatographic separation is performed on a C18 Kinetex Evo column (Phenomenex, 100 mm×2.1 mm, […]) using mobile phase A: H2O, 0.1% formic acid and B: methanol, 0.1% formic acid at 45° C. 5 μL of sample are injected at 100% A and 0.4 mL/min flow followed by a linear gradient to 95% B over 5.5 min and 0.4 mL/min flow leading to thymine, BVU, SRV, and BRV elution at 0.95, 2.0, 2.15, and 2.4 min, respectively. The internal standards caffeine and sulfamethoxazole elute at 1.9 and 2.1 min, respectively. The qTOF is operated in positive scanning mode (50-1000 m/z) and the following source parameters: VCap is 3500 V; nozzle voltage is 2000 V; gas temp is 225 C; drying gas 13 L/min; nebulizer is 20 psig; sheath gas temp is 225 C; and sheath gas flow is 12 L/min. Online mass calibration is performed using a second ionization source and a constant flow (5 μL/min) of reference solution (121.0509 and 922.0098 m/z). Compounds are identified based on the retention time of chemical standards and their accurate mass (tolerance 20 ppm).
# [2] = system: murine gut microbial communities; assay: Bacterial conversion assay with fecal microbial communities; format: in vitro ADME; settings: murine unfractionated fecal microbial communities
# Experimental: (§1) All handling of human materials is conducted with the permission of the Yale Human Investigation Committee. Samples are collected and stored as described in A. L. Goodman et al., Extensive personal human gut microbiota culture collections characterized and manipulated in gnotobiotic mice, Proceedings of the National Academy of Sciences,108, 6252-6257 (2011), the content of which is incorporated by reference herein. In brief, a single fecal sample is collected from each healthy human donor, stored on ice for less than 12 hours prior to transport into an anaerobic chamber (Coy Laboratory Products) and homogenization in pre-reduced GMM containing 20% glycerol. Aliquots of 0.5 mL volume are anaerobically prepared in 1.8 mL glass E-Z vials (Wheaton Industries) and stored at −80° C. Murine fecal samples are collected from individually caged animals (2 males and 2 females) and are stored at −80° C. without further processing.
# (§2) Frozen stocks are re-suspended in 4 mL pre-reduced GMM and incubated anaerobically at 37° C. for 14 h. Cultures are diluted (1:10) in 20% pre-reduced GMM containing BRV or SRV at 100 μM and further incubated at 25° C. anaerobically. […] Substrates and reaction product are extracted and quantified by LC-MS as described below.
# [3] = system: human gut microbial communities; assay: as above; format: in vitro ADME; settings: human unfractionated fecal microbial communities
# Experimental: as §1, §2
smiles,measurement,setting,value
"O=c1[nH]c(=O)n([C@H]2C[C@H](O)[C@@H](CO)O2)cc1/C=C/Br [BRV, Brivudine]",endogenous DPD substrates (thymine) in the liver,[1]; BRV-treated CV mice,accumulate endogenous DPD substrates
same,drug concentrations along the length of the gastrointestinal tract,"[1]; CV mice, oral BRV",progressively reduced
same,BRV levels over time in the duodenum,"[1]; CV versus GF mice, oral BRV",similar
same,serum BRV,"[1]; CV versus GF mice, oral BRV",without a corresponding decrease
same,BRV levels further along the gastrointestinal tract and in feces,"[1]; GF mice versus CV, oral BRV",significantly higher
same,conversion of BRV to BVU,[2],stoichiometric conversion to BVU
same,conversion of BRV to BVU,[3],stoichiometric conversion to BVU
